According to patent US20210145830A1, “MATERIALS AND METHODS FOR TREATING CANCER” (Mayo Foundation for Medical Education and Research, priority 2018, published 2021):
“Also recorded” adds a separate entry of the source.

Legend:
CART19 = CART19 cytokine release (Luminex) in the presence of TP0903; assay type: cell-based, human; conditions: for Th2 cytokines IL-4 and IL-5 / cytokine release syndrome (CRS) cytokines (MCP1, IL-6, IL-10, MIP-b): Jeko or CLL cells
Method: FIG. 7 contains an exemplary timeline for a cytokine assay in the presence of TP0903. UTDs or CART19 were incubated with Jeko in the presence of TP0903 in the 1 to 1 ratio. At day 3, supernatant was harvested and analyzed by 32-plex Luminex array.
FIG. 23. CART19 cytokine production in the presence of TP0903. CART19 cells or untransduced T cells were co-cultured with JeKo-1 cells or leukemic B cells derived from patients with chronic lymphocytic leukemia for 3 days and supernatants were analyzed for human cytokines (Luminex, 38-plex).
FIG. 27. CART19 cytokine production in the presence of TP-0903. CART19 cells or untransduced T cells were co-cultured with JeKo-1 cells (left heat map) or leukemic B cells (right heat map) derived from patients with chronic lymphocytic leukemia for 3 days, and supernatants were analyzed for human cytokines (Luminex, 38-plex).
Effector and target cells were incubated at a 1:1 ratio in T cell media for 24 or 72 hours as indicated. Supernatant was harvested and analyzed by 30-plex Luminex array according to the manufacturer's protocol (Millipore).
UTDs or CART19 were incubated with Jeko cell line or primary CLL cells in the presence of TP0903, at 1:1 ratio for 3 days (FIG. 7). At the end of the experiment, supernatant was harvested and analyzed for cytokines by 30-plex multiplex. […] TP0903 suppressed critical cytokines for the development of CRS after CART cell therapy (FIG. 10).

[1] = test system: p-LCK and GATA-3 in naïve T cells; assay: Western blot of p-LCK and GATA-3 in naïve T cells; assay type: cell-based
Method: FIG. 21A-E. TP0903 modulates naïve T cells function upon stimulation of PMA/Ionomycin in vitro. A. Naïve T cell proliferation assay in the presence of TP0903. Naïve T cells were stimulated with 5 ng/ml of PMA and 0.1 μg/ml of Ionomycin in the absence or in the increasing dose of TP0903 (10-65 nM) for 3 days. […] B. At the end of the expansion on day 3, T cells were stained with inhibitory receptors. […] C. Naïve T cell degranulation assay and cytokine production in the presence of TP0903. Naïve T cells were stimulated with 50 ng/ml of PMA and 1 μg/ml of Ionomycin for 4 hours in the presence of increasing doses of TP0903 (10-65 nM). […] D. Western blot analysis of p-LCK and GATA-3 inhibition by TP0903 in naïve T cells. Naïve T cells were stimulated with 5 ng/ml of PMA and 0.1 ug/ml of Ionomycin in the absence (DMSO) or in the increasing dose of TP0903 (10-65 nM) for 24 hours. […] was used as loading control. E. TP0903 specifically reduces regulatory T cells (Treg). Effector T cells (Teff) were isolated by negative selection using RoboSep™ Human T Cell Isolation Kit (Stemcell Technologies). Tregs were isolated by negative selection using the human CD4^+CD127^lowCD25^+ Treg isolation kit (Stemcell Technologies). Teff and Treg were stimulated with anti-CD3/CD28 beads and 400 U/ml of IL-2. At day 5, total T cells were evaluated via CountBright quantification.

Effector T cells (Teff) = assay: Effector T cell expansion (anti-CD3/CD28 beads, IL-2); assay type: cell-based, human; conditions: anti-CD3/CD28 beads + 400 U/ml IL-2; day 5
Method: FIGS. 19A-F. A. Inhibitory receptors expression in naïve T cells after TCR activation with CD3 stimulation in the increasing dose of TP0903. Naïve T cells were incubated with anti CD3/CD28 beads at a 1 to 3 ratio in the presence of TP0903. At day 3, T cells were stained with PD-1, TIM-3, LAG-3, and ICOS. […] Teff cells were isolated by negative selection using Human T Cell Isolation Kit. Tregs were isolated by negative selection using the human CD4^+CD127^lowCD25^+ Treg isolation kit. Teff and Treg were stimulated with anti CD3/CD28 beads and 400 U/ml of IL-2. At day 5, total T cells were evaluated via CountBright quantification. C. CART19 cytokine assay in the presence TP0903. UTDs or CART19 were incubated with Jeko in the presence of TP-0903 at a 1 to 1 ratio. Supernatant was harvested and analyzed by 32-plex Luminex array after 3 days. D. Inhibitory receptors expression in CART19 cells in the presence TP0903. UTDs or CART19 were incubated with Jeko at a 1 to 1 E/T ratio in the presence of TP0903. At day 5, T cells were stained with PD-1 (left), LAG-3 (right), and TIM-3. […] Cell killing was assessed by luminescence at 24 hours. […]
FIG. 21A-E. TP0903 modulates naïve T cells function upon stimulation of PMA/Ionomycin in vitro. […] At day 5, total T cells were evaluated via CountBright quantification.

[2] = 3 days, supernatant, listed as TP-0903
[3] = PMA/Ionomycin, 24 hours, highest dose (65 nM)

Structure (SMILES): CN1CCN(Cc2ccc(Nc3ncc(Cl)c(Nc4ccccc4S(=O)(=O)N(C)C)n3)cc2)CC1 [TP0903]
- CART Th1 specific cytokines (IFN-γ, TNF-α) (CART19; 1:1 with Jeko or primary CLL cells, 3 days, supernatant): only high doses (supra-physiological) suppressed; also recorded: maintains
- IL-8 (CART19; JeKo-1 or CLL leukemic B cells, 3 days, Luminex 38-plex): downregulated
- cytokine production ability of IFN-γ, GM-CSF, TNF-α, and IL-2 (CART19; JeKo-1 or CLL patient leukemic B cells, 3 days, Luminex 38-plex): maintained
- Th2 cytokines IL-4 and IL-5 (CART19; 3 days, supernatant): suppresses; also recorded: significantly downregulated
- cytokine release syndrome (CRS) cytokines (MCP1, IL-6, IL-10, MIP-b) (CART19; 3 days, supernatant): suppresses; also recorded: reduction; also recorded: remarkably downregulated
- Th2 cytokines IL-4 and IL-5 (CART19; [2]): significantly downregulated
- cytokine release syndrome (CRS) cytokines (MCP1, IL-6, IL-10, MIP-b) (CART19; [2]): remarkably downregulated
- Th polarization of CART cells (CART19; stimulated with JeKo or leukemic B cells from CLL patients): polarization of CART cells into a Th1 phenotype
- GATA-3 [1, 3]: modest inhibition
- phosphorylation of LCK [1, 3]: modest inhibition
- LCK ([1]; T cell lysates, low dose TP0903): inhibition
- Teff expansion (Effector T cells (Teff)): not interfered
